# Laboratory results published in ChEMBL document CHEMBL2440076, “New triarylpyrazoles as broad-spectrum anticancer agents: design, synthesis, and biological evaluation” (Eur J Med Chem, 2013).
# Assays:
# Format in all cases: functional
# Malme-3M [1] = test: Growth inhibition of human MALME-3M cells assessed as cell growth at 5X10'-5 M after 48 hrs by sulforhodamine B assay; settings: read-out: Activity
# SNB-19 [2] = test: Growth inhibition of human SNB19 cells assessed as cell growth at 5X10'-5 M after 48 hrs by sulforhodamine B assay; settings: SNB-19, 48 h, read-out: Activity
# SF-539 [3] = test: Growth inhibition of human SF539 cells assessed as cell growth at 5X10'-5 M after 48 hrs by sulforhodamine B assay; settings: SF-539, 48 h, read-out: Activity
# SF-295 = test: Growth inhibition of human SF295 cells assessed as cell growth at 5X10'-5 M after 48 hrs by sulforhodamine B assay; settings: SF-295, 48 h, read-out: Activity
# HCT-15 [4] = test: Growth inhibition of human HCT15 cells assessed as cell growth at 5X10'-5 M after 48 hrs by sulforhodamine B assay; settings: HCT-15, 48 h, read-out: Activity
# COLO 205 [5] = test: Growth inhibition of human COLO205 cells assessed as cell growth at 5X10'-5 M after 48 hrs by sulforhodamine B assay; settings: COLO 205, 48 h, read-out: Activity
# RPMI-8226 [6] = test: Growth inhibition of human RPMI8226 cells assessed as cell growth at 5X10'-5 M after 48 hrs by sulforhodamine B assay; settings: RPMI-8226, 48 h, read-out: Activity
# K562 [7] = test: Growth inhibition of human K562 cells assessed as cell growth at 5X10'-5 M after 48 hrs by sulforhodamine B assay; settings: K562, 48 h, read-out: Activity
# CAKI-1 [8] = test: Growth inhibition of human CAKI-1 cells assessed as cell growth at 5X10'-6 M after 48 hrs by sulforhodamine B assay; settings: CAKI-1, 48 h, read-out: Activity
# COLO 205 [9] = test: Growth inhibition of human COLO205 cells assessed as cell growth at 5X10'-9 M after 48 hrs by sulforhodamine B assay; settings: COLO 205, 48 h, read-out: Activity
# RPMI-8226 [10] = test: Growth inhibition of human RPMI8226 cells assessed as cell growth at 5X10'-9 M after 48 hrs by sulforhodamine B assay; settings: RPMI-8226, 48 h, read-out: Activity
# HT-29 = test: Growth inhibition of human HT-29 cells assessed as cell growth at 5X10'-6 M after 48 hrs by sulforhodamine B assay; settings: HT-29, 48 h, read-out: Activity
# RPMI-8226 [11] = test: Growth inhibition of human RPMI8226 cells assessed as cell growth at 5X10'-6 M after 48 hrs by sulforhodamine B assay; settings: RPMI-8226, 48 h, read-out: Activity
# CAKI-1 [12] = test: Growth inhibition of human CAKI-1 cells assessed as cell growth at 5X10'-7 M after 48 hrs by sulforhodamine B assay; settings: CAKI-1, 48 h, read-out: Activity
# MDA-MB-435 = test: Growth inhibition of human MDA-MB-435 cells assessed as cell growth at 5X10'-7 M after 48 hrs by sulforhodamine B assay; settings: MDA-MB-435, 48 h, read-out: Activity
# KM12 = test: Growth inhibition of human KM12 cells assessed as cell growth at 5X10'-7 M after 48 hrs by sulforhodamine B assay; settings: KM12, 48 h, read-out: Activity
# HCT-15 [13] = test: Growth inhibition of human HCT15 cells assessed as cell growth at 5X10'-7 M after 48 hrs by sulforhodamine B assay; settings: HCT-15, 48 h, read-out: Activity
# COLO 205 [14] = test: Growth inhibition of human COLO205 cells assessed as cell growth at 5X10'-7 M after 48 hrs by sulforhodamine B assay; settings: COLO 205, 48 h, read-out: Activity
# NCI-H226 = test: Growth inhibition of human NCI-H226 cells assessed as cell growth at 5X10'-7 M after 48 hrs by sulforhodamine B assay; settings: NCI-H226, 48 h, read-out: Activity
# RPMI-8226 [15] = test: Growth inhibition of human RPMI8226 cells assessed as cell growth at 5X10'-7 M after 48 hrs by sulforhodamine B assay; settings: RPMI-8226, 48 h, read-out: Activity
# K562 [16] = test: Growth inhibition of human K562 cells assessed as cell growth at 5X10'-7 M after 48 hrs by sulforhodamine B assay; settings: K562, 48 h, read-out: Activity
# OVCAR-3 = test: Growth inhibition of human OVCAR3 cells assessed as cell growth at 5X10'-8 M after 48 hrs by sulforhodamine B assay; settings: OVCAR-3, 48 h, read-out: Activity
# IGROV-1 [17] = test: Growth inhibition of human IGROV1 cells assessed as cell growth at 5X10'-8 M after 48 hrs by sulforhodamine B assay; settings: IGROV-1, 48 h, read-out: Activity
# UACC-257 [18] = test: Growth inhibition of human UACC257 cells assessed as cell growth at 5X10'-8 M after 48 hrs by sulforhodamine B assay; settings: UACC-257, 48 h, read-out: Activity
# SNB-19 [19] = test: Growth inhibition of human SNB19 cells assessed as cell growth at 5X10'-8 M after 48 hrs by sulforhodamine B assay; settings: SNB-19, 48 h, read-out: Activity
# SF-539 [20] = test: Growth inhibition of human SF539 cells assessed as cell growth at 5X10'-8 M after 48 hrs by sulforhodamine B assay; settings: SF-539, 48 h, read-out: Activity
# SW-620 = test: Growth inhibition of human SW620 cells assessed as cell growth at 5X10'-8 M after 48 hrs by sulforhodamine B assay; settings: SW-620, 48 h, read-out: Activity
# MCF7 = test: Growth inhibition of human MCF7 cells assessed as cell growth at 5X10'-5 M after 48 hrs by sulforhodamine B assay; settings: MCF7, 48 h, read-out: Activity
# RXF 393 = test: Growth inhibition of human RXF393 cells assessed as cell growth at 5X10'-5 M after 48 hrs by sulforhodamine B assay; settings: RXF 393, 48 h, read-out: Activity
# UACC-257 [21] = test: Growth inhibition of human UACC257 cells assessed as cell growth at 5X10'-5 M after 48 hrs by sulforhodamine B assay; settings: UACC-257, 48 h, read-out: Activity
# COLO 205 [22] = test: Growth inhibition of human COLO205 cells assessed as cell growth at 5X10'-8 M after 48 hrs by sulforhodamine B assay; settings: COLO 205, 48 h, read-out: Activity
# MOLT-4 = test: Growth inhibition of human MOLT4 cells assessed as cell growth at 5X10'-8 M after 48 hrs by sulforhodamine B assay; settings: MOLT-4, 48 h, read-out: Activity
# K562 [23] = test: Growth inhibition of human K562 cells assessed as cell growth at 5X10'-8 M after 48 hrs by sulforhodamine B assay; settings: K562, 48 h, read-out: Activity
# CCRF-CEM = test: Growth inhibition of human CCRF-CEM cells assessed as cell growth at 5X10'-8 M after 48 hrs by sulforhodamine B assay; settings: read-out: Activity
# SK-OV-3 = test: Growth inhibition of human SKOV3 cells assessed as cell growth at 5X10'-9 M after 48 hrs by sulforhodamine B assay; settings: SK-OV-3, 48 h, read-out: Activity
# 786-0 = test: Growth inhibition of human 786-0 cells assessed as cell growth at 5X10'-9 M after 48 hrs by sulforhodamine B assay; settings: 786-0, 48 h, read-out: Activity
# IGROV-1 [24] = test: Growth inhibition of human IGROV1 cells assessed as cell growth at 5X10'-9 M after 48 hrs by sulforhodamine B assay; settings: IGROV-1, 48 h, read-out: Activity
# Malme-3M [25] = test: Growth inhibition of human MALME-3M cells assessed as cell growth at 5X10'-9 M after 48 hrs by sulforhodamine B assay; settings: read-out: Activity
Compound,growth at 50 µM (Malme-3M [1]),growth at 50 µM (SNB-19 [2]),growth at 50 µM (SF-539 [3]),growth at 50 µM (SF-295),growth at 50 µM (HCT-15 [4]),growth at 50 µM (COLO 205 [5]),growth at 50 µM (RPMI-8226 [6]),growth at 50 µM (K562 [7]),growth at 5 µM (CAKI-1 [8]),growth at 0.005 µM (COLO 205 [9]),growth at 0.005 µM (RPMI-8226 [10]),growth at 5 µM (HT-29),growth at 5 µM (RPMI-8226 [11]),growth at 0.5 µM (CAKI-1 [12]),growth at 0.5 µM (MDA-MB-435),growth at 0.5 µM (KM12),growth at 0.5 µM (HCT-15 [13]),growth at 0.5 µM (COLO 205 [14]),growth at 0.5 µM (NCI-H226),growth at 0.5 µM (RPMI-8226 [15]),other results
COc1cc(-c2nn(-c3cccc(NC(=O)c4cccc(C(F)(F)F)c4)c3)cc2-c2ccncc2)ccc1Cl,29%,28%,-23%,-26%,8%,-72%,-4%,7%,24%,108%,98%,5%,12%,90%,69%,89%,84%,102%,84%,88%,growth at 0.5 µM (K562 [16]): 83%; growth at 0.05 µM (OVCAR-3): 101%; growth at 0.05 µM (IGROV-1 [17]): 95%; growth at 0.05 µM (UACC-257 [18]): 99%; growth at 0.05 µM (SNB-19 [19]): 96%; growth at 0.05 µM (SF-539 [20]): 94%; growth at 0.05 µM (SW-620): 98%; growth at 50 µM (MCF7): 9%; growth at 50 µM (RXF 393): -2%; growth at 50 µM (UACC-257 [21]): 48%; growth at 0.05 µM (COLO 205 [22]): 101%; growth at 0.05 µM (MOLT-4): 98%; growth at 0.05 µM (K562 [23]): 94%; growth at 0.05 µM (CCRF-CEM): 98%; growth at 0.005 µM (SK-OV-3): 96%; growth at 0.005 µM (786-0): 95%; growth at 0.005 µM (IGROV-1 [24]): 102%; growth at 0.005 µM (Malme-3M [25]): 95%
O=C(Nc1cccc(-n2cc(-c3ccncc3)c(-c3ccc(Cl)c(O)c3)n2)c1)Nc1cc(C(F)(F)F)cc(C(F)(F)F)c1,-64%,-47%,-96%,-76%,-74%,-91%,5%,-26%,-4%,105%,97%,-54%,4%,74%,79%,51%,49%,93%,79%,49%,growth at 0.5 µM (K562 [16]): 46%; growth at 0.05 µM (OVCAR-3): 111%; growth at 0.05 µM (IGROV-1 [17]): 102%; growth at 0.05 µM (UACC-257 [18]): 89%; growth at 0.05 µM (SNB-19 [19]): 99%; growth at 0.05 µM (SF-539 [20]): 94%; growth at 0.05 µM (SW-620): 101%; growth at 50 µM (MCF7): -64%; growth at 50 µM (RXF 393): -79%; growth at 50 µM (UACC-257 [21]): -82%; growth at 0.05 µM (COLO 205 [22]): 103%; growth at 0.05 µM (MOLT-4): 109%; growth at 0.05 µM (K562 [23]): 108%; growth at 0.05 µM (CCRF-CEM): 92%; growth at 0.005 µM (SK-OV-3): 103%; growth at 0.005 µM (786-0): 100%; growth at 0.005 µM (IGROV-1 [24]): 108%; growth at 0.005 µM (Malme-3M [25]): 107%
O=C(Nc1cccc(-n2cc(-c3ccncc3)c(-c3ccc(Cl)c(O)c3)n2)c1)c1ccc(N2CCOCC2)c(C(F)(F)F)c1,-40%,16%,-18%,-59%,-7%,65%,-14%,3%,34%,98%,98%,79%,9%,98%,85%,85%,91%,111%,99%,83%,growth at 0.5 µM (K562 [16]): 103%; growth at 0.05 µM (OVCAR-3): 100%; growth at 0.05 µM (IGROV-1 [17]): 95%; growth at 0.05 µM (UACC-257 [18]): 104%; growth at 0.05 µM (SNB-19 [19]): 104%; growth at 0.05 µM (SF-539 [20]): 93%; growth at 0.05 µM (SW-620): 104%; growth at 50 µM (MCF7): 12%; growth at 50 µM (RXF 393): -37%; growth at 50 µM (UACC-257 [21]): -9%; growth at 0.05 µM (COLO 205 [22]): 102%; growth at 0.05 µM (MOLT-4): 94%; growth at 0.05 µM (K562 [23]): 100%; growth at 0.05 µM (CCRF-CEM): 100%; growth at 0.005 µM (SK-OV-3): 95%; growth at 0.005 µM (786-0): 94%; growth at 0.005 µM (IGROV-1 [24]): 103%; growth at 0.005 µM (Malme-3M [25]): 88%
